Data set [1] concerns mixed culture of Gram-positive cocci, Gram-negative cocci, Gram-positive rods and Gram-negative rods. Put plainly: Microbial contamination of dried Pigment Yellow 74 powder (Example 1 procedure) after mixing filter cake with bacterial culture. It is filed as cell-based, bacteria. The method, then: (§1) Susceptibility to microbial contamination is assessed according to the following procedure:
(§2) Microbial contamination is assessed using individual bacteria of the morphological types, Gram-positive cocci, Gram-negative cocci, Gram-positive rods and Gram-negative rods which are maintained on Nutrient Agar slopes. When required, each is cultured in Nutrient broth at 30° C. until an organism count of >10^8 colony-forming units (cfu) per milliliter (ml) is reached. The individual cultures are then mixed in equal proportions to provide a mixed culture which is then used immediately.
(§3) 23.3 parts of acetic acid (80%) are added to a solution of 55 parts of acetoacet-o-anisidide dissolved in a solution of 25.5 parts of sodium hydroxide (47%) in 450 parts of water at a temperature of 0° C. The resultant slurry is reacted with 42.5 parts of p-nitro-o-anisidine previously diazotised with 45.4 parts of sodium nitrite (37%) and 56 parts of hydrochloric acid (36%) in the usual manner with simultaneous addition of sodium hydroxide solution (10%) to maintain pH 5.5-6.0. To the coupled slurry are then added 3 parts of dibutyl sebacate and 1 part of dimethylbenzyl-C12-14alkylammonium chloride (100% active) and the mixture is heated to a temperature of 100° C. and maintained at this temperature for one hour. The product is then filtered and washed with water under vacuum to remove soluble salts. The filter cake(still under vacuum suction) is mixed with a bacterial culture (10 ml of culture diluted to 100 ml with water)and vacuum suction is maintained until no further liquid emanates from the filter cake. The filter cake, without further washing, is then dried and converted to a powder by grinding. The powder is then passed through a 150 micron sieve.
The procedure described in Example 1 is repeated, but varying the type of biocide and amount of biocide used. The procedure for determining the extent of microbial contamination is as follows:
(§4) 10 mg of the sieved powder and one drop of sterile water are evenly spread on a Nutrient Agar plate with a glass spreader under aseptic conditions and the plate incubated at 30° C. for 48 hours, The number of bacterial colonies evident on each plate are then counted and expressed as the number of colony-forming units per gram (cfu/g).

The test system is the same in data set [2]. Put plainly: Microbial contamination of dried Pigment Yellow 65 powder (Example 2 procedure) after mixing filter cake with bacterial culture. The format is cell-based, bacteria. The method, then:
as §1, §2, §4
as §3, with “(100%)” for “(80%)”, “o-nitro-p-anisidine” for “p-nitro-o-anisidine”, “cake (still” for “cake(still”, “water) and” for “water)and”
The procedure described in Example 2 is repeated, but varying the type of biocide and amount of biocide used.
The procedure described in Example 2 is repeated, but varying the type of biocide and amount of biocide used and omitting the DBS.

The test system is the same in data set [3]. Put plainly: Microbial contamination of dried Pigment Yellow 13 powder (Example 5 procedure) after mixing filter cake with bacterial culture. It is filed as cell-based, bacteria. Particulars: PY13, no DBS. How it is done:
as §1, §2, §4
A solution of 8.9 parts of acetic acid (100%) and 15 parts hydrochloric acid (36%) in 100 parts water are added to a solution of 63 parts of acetoacet-m-xylidide dissolved in a solution of 25.2 parts of sodium hydroxide (50%) in 676 parts of water at a temperature of 20° C. The resultant slurry is reacted with 36.9 parts of a previously tetrazotised solution of 3,3′-dichlorobenzidine, with simultaneous addition of sodium hydroxide solution (10%) to maintain pH 4.5-5.5. […] The product is then filtered and washed with water under vacuum to remove soluble salts. The filter cake (still under vacuum suction) is mixed with a bacterial culture (10 ml of culture diluted to 100 ml with water) and vacuum suction is maintained until no further liquid emanates from the filter cake. The filter cake, without further washing, is then dried and converted to a powder by grinding. The powder is then passed through a 150 micron sieve.

Data set [4] shares this test system. Put plainly: Microbial contamination of dried Pigment Yellow 74 powder (Example 1 procedure) after mixing filter cake with bacterial culture. It is filed as cell-based, bacteria. This is another data set of the same source.
Data set [5] can be described thus: Colour strength on storage of pigment powder, tested in alkyd paint system. It is filed as physicochemical. The method, then: The dried pigments are incorporated in a conventional manner into an alkyd paint system (SORBAL®P470, an alkyd resin ex DSM resins Ltd. having a solids content of 70%, white spirit, pigment and driers solution).
The dried powders are each divided into two portions. One portion is tested in the paint system immediately after drying. […] The tinting strengths are assessed visually and instrumentally.
The values correspond to the instrumentally-measured colour strength for the same pigment content in the paint.

Where [6] appears, read: PY74, 3 parts dibutyl sebacate, 0.5 parts biocide, plate 30° C. 48 hours.
Where [7] appears, read: PY74, 3 parts dibutyl sebacate, 1.0 parts biocide, plate 30° C. 48 hours.
The mark [8] stands for this setting: PY74, 3 parts dibutyl sebacate, 3.0 parts biocide, plate 30° C. 48 hours.
[9] abbreviates: PY74, 3 parts dibutyl sebacate, 5.0 parts biocide, plate 30° C. 48 hours.
Where [10] appears, read: PY65, omitting the DBS, 0.5 parts biocide.
[11] abbreviates: PY65, omitting the DBS, 1.0 parts biocide.
The mark [12] stands for this setting: PY65, omitting the DBS, 3.0 parts biocide.
The mark [13] stands for this setting: PY65, omitting the DBS, 5.0 parts biocide.
Setting [14] is: PY65, with 3 parts dibutyl sebacate, 0.5 parts biocide.
Setting [15] is: PY65, with 3 parts dibutyl sebacate, 1.0 parts biocide.
[16] abbreviates: PY65, with 3 parts dibutyl sebacate, 3.0 parts biocide.
The mark [17] stands for this setting: PY65, with 3 parts dibutyl sebacate, 5.0 parts biocide.

“And” between values parts separate entries of the source, which are not always exact repeats. Equal entries are not always repeated.

With “Benzyldimethyl-C12-14-alkylammonium chloride [KLC]”, the “microbial contamination, colony-forming units per gram” value (shortened to “microbial contamination … per gram”) is 0 cfu/g in data set [1] (PY74, 3 parts DBS + 1 part KLC); >10^4 cfu/g in data set [1] (PY74, 3 parts dibutyl sebacate, 0.1 parts biocide, plate 30° C. 48 hours); 0 cfu/g in data set [1] (setting [6]); 0 cfu/g in data set [1] (setting [7]); 0 cfu/g in data set [1] (setting [8]); 0 cfu/g in data set [1] (setting [9]). The “microbial contamination … per gram” value in data set [2] (setting [10]) was 1.3 × 10^4 cfu/g; in data set [2] (setting [11]), 0 cfu/g; in data set [2] (setting [12]), 0 cfu/g; in data set [2] (setting [13]), 0 cfu/g; in data set [2] (setting [14]), 2.7 × 10^3 cfu/g; in data set [2] (setting [15]) it was 0 cfu/g. For the same compound, the “microbial contamination … per gram” value is given as 0 cfu/g in data set [2] (setting [16]); 0 cfu/g in data set [2] (setting [17]); >10^4 cfu/g in data set [3] (0.5 parts biocide); >10^4 cfu/g in data set [3] (1.0 parts biocide); 0 cfu/g in data set [3] (3.0 parts biocide); 0 cfu/g in data set [3] (5.0 parts biocide). In addition, the “microbial contamination … per gram” value worked out at 0 cfu/g in data set [4] (PY74, 0 parts DBS + 1 part KLC); 0 cfu/g in data set [4] (PY74, 1 parts DBS + 1 part KLC); 0 cfu/g in data set [4] (PY74, 2 parts DBS + 1 part KLC).
With `CCCCCCCCn1sccc1=O` [OTW, n-Octylisothiazolin-3-one], the “microbial contamination … per gram” value in data set [1] (setting [6]) was >10^4 cfu/g; in data set [1] (setting [7]), 2.0 × 10^4 cfu/g; in data set [1] (setting [8]), >10^4 cfu/g; in data set [1] (setting [9]) it was 1.4 × 10^3 cfu/g; in data set [2] (setting [10]), >10^4 cfu/g; in data set [2] (setting [11]) it was >10^4 cfu/g. Further, the “microbial contamination … per gram” value in data set [2] (setting [12]) is listed as >10^3 cfu/g; in data set [2] (setting [13]), >10^3 cfu/g; in data set [2] (setting [14]), >10^4 cfu/g; in data set [2] (setting [15]), >10^4 cfu/g; in data set [2] (setting [16]), >10^4 cfu/g; in data set [2] (setting [17]), 0 cfu/g. Moreover, the “microbial contamination … per gram” value in data set [3] (0.5 parts biocide) is >10^4 cfu/g; in data set [3] (1.0 parts biocide), 5.0 × 10^3 cfu/g; in data set [3] (3.0 parts biocide), 0 cfu/g; in data set [3] (5.0 parts biocide), 0 cfu/g.
`COc1cc([N+](=O)[O-])ccc1/N=N/C(C(C)=O)C(=O)Nc1ccccc1OC` (centres unmarked) [C.I. Pigment Yellow 74]: the loss of strength in data set [5] (initial versus last storage time at ambient temperature) was 36 and 26 and 42. In addition, the “amount of Pigment required, 3 weeks” value in data set [5] (powder stored at ambient temperature 3 weeks) is 105 and 104. In addition, in data set [5] (powder stored at ambient temperature 6 weeks), the “amount of Pigment required, 6 weeks” value was 105 and 108. Further, the “colour strength, initial” value in data set [5] (powder tested immediately after drying, instrumentally-measured colour strength) was 141 and 134 and 146.

Source of the values: patent US6361595B1, “Process for the preparation of pigment compositions” (Ciba Specialty Chemicals Corporation, priority 1999, dated 2002).
